Assay results as given in patent US12570671B2 (BRISTOL-MYERS SQUIBB COMPANY, priority 2020, dated 2026).

Experiments:
Helios = Helios (Homo sapiens, UniProt Q96SW2+Q9UKS7); assay: Helios Cellular Degradation Assay (Helios readout); format: cell-based; parameters: endogenous in cells; host or cells: Jurkat; details: Jurkat cells, 72 h incubation, Helios-PE antibody staining, flow cytometry; read-out: Helios Jurkat IC50
Procedure: (§1) Jurkat cells were plated at 80,000 cells/well in 40 μL RPMI+10% FBS in a 384 well cell culture plate prior to using acoustic dispensing technology for adding compound of interest. Cell cultures were incubated for 72 h at 37° C. and 5% C02. In order to facilitate analysis, cell cultures were spun down at 200 rpm for 5 min and the supernatant was discarded. After shaking the plate to dislodge the cell pellet, cells were resuspended in 50 μL of Fixation Buffer (eBioScience FoxP3 buffer set 00-5523-00) for 60 min at room temperature. After centrifuging and discarding the supernatant, cells were permeabilized with 50 μL of Permeabilization buffer (eBioScience FoxP3 buffer set 00-5523-00) for 10 min at room temperature. Following permeabilization, cells were spun down and the supernatant was replaced with 20 μL fluorescently labelled antibodies against Helios, Ikaros and Aiolos or corresponding Isotype controls in 1× Permeabilization buffer (Ikaros-Alexa488 [Biolegend, Cat #368408, 1:50], Helios-PE [CST, Cat #29360, 1:50], Aiolos-Alexa647 [Biolegend, Cat #371106Biolegend, 1:25]) and staining reactions were incubated for 1 h at room temperature; protected from light. Subsequently, 30 μL of 1× Permeabilization buffer was added prior to centrifuging the cells and discarding the supernatant. Stained cells were resuspended in 25 μL of flow cytometry staining buffer (PBS+0.2% BSA) and analyzed using an Intellicyt Ique Plus flow cytometer.

Ikaros = Ikaros (Homo sapiens, UniProt Q13422+Q96SW2); assay: Helios Cellular Degradation Assay (Ikaros readout); format: cell-based; parameters: endogenous in cells; host or cells: Jurkat; details: Jurkat cells, 72 h incubation, Ikaros-Alexa488 antibody staining, flow cytometry; read-out: Ikaros Jurkat IC50
Chain of Ikaros (Q13422 whole entry): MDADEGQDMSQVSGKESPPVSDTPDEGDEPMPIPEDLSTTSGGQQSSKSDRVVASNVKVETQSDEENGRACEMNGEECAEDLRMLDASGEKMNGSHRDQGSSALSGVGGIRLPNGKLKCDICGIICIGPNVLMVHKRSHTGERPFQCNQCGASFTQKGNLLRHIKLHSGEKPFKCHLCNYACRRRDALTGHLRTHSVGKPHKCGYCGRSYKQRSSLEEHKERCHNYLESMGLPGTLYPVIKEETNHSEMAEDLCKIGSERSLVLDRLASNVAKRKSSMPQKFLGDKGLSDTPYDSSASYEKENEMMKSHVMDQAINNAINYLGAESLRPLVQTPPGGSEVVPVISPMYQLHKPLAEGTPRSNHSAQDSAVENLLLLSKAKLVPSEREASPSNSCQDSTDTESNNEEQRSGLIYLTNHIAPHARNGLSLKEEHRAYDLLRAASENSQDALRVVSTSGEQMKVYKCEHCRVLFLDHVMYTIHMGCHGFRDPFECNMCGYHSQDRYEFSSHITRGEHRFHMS
Chain of Ikaros (Q96SW2 whole entry): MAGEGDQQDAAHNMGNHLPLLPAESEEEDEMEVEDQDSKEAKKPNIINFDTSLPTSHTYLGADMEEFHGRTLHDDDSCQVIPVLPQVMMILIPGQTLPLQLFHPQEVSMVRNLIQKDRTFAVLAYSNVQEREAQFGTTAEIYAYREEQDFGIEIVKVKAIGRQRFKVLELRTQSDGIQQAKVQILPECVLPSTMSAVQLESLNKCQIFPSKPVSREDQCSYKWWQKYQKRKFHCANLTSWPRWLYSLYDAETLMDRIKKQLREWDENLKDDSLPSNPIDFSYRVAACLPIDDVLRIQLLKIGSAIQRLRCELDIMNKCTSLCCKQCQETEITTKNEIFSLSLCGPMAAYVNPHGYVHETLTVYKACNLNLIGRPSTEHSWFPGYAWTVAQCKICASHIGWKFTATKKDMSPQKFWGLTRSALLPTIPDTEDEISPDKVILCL
Chain of Ikaros (Q16531 whole entry partner): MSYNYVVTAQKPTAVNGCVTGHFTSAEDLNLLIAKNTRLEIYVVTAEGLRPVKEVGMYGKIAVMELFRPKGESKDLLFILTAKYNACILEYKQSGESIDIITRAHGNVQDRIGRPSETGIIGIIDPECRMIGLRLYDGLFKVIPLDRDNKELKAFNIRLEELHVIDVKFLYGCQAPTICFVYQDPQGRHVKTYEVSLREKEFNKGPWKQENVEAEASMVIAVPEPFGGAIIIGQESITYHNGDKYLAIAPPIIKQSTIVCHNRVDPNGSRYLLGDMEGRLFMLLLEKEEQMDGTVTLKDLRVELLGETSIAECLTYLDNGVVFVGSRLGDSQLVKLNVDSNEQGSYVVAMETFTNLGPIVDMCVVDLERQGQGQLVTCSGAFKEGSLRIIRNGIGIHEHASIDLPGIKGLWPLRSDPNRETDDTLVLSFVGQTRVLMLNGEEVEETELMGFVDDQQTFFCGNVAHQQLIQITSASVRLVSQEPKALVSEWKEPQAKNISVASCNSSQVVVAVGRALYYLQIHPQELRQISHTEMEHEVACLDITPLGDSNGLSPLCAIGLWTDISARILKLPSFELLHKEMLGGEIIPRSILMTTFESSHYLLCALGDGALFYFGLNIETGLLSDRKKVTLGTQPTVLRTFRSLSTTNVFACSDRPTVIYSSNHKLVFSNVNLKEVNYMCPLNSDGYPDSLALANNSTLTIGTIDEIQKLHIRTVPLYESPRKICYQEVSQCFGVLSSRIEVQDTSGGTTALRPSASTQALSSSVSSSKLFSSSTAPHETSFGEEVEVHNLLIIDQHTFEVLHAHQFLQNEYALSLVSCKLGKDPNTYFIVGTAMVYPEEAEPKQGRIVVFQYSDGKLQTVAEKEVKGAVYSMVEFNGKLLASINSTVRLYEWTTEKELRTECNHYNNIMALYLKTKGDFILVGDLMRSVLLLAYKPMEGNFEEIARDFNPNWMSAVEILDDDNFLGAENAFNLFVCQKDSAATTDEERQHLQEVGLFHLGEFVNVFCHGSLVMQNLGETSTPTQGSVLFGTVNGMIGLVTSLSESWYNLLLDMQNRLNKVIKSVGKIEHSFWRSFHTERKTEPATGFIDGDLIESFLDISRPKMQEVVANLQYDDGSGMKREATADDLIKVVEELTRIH
Procedure: as §1

Chain of Helios (Q9UKS7 whole entry): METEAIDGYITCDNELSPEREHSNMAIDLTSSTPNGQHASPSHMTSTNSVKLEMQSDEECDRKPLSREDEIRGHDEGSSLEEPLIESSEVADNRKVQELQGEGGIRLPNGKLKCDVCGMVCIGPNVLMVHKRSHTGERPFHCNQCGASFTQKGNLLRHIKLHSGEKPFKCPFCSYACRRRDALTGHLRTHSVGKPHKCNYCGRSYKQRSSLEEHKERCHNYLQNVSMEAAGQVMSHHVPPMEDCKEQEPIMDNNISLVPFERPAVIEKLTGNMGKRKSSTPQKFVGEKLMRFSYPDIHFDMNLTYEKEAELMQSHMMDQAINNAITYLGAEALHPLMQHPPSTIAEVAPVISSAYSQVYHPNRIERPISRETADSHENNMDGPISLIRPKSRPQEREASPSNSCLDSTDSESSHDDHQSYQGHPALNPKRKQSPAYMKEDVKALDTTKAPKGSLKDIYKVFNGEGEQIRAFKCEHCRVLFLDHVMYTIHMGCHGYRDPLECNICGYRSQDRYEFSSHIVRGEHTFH
Chain of Helios (Q96SW2 whole entry): as the sequence (Q96SW2 whole entry) above
Chain of Helios (Q16531 whole entry partner): as the sequence (Q16531 whole entry partner) above

SMILES | DC50 (Helios) [nM] | DC50 (Ikaros) [nM]
Nc1nc(-c2ccc3c(c2)CN([C@@H]2CCC(=O)NC2=O)C3=O)cc2ccccc12 [Example 83, (3R)-3-[5-(1-aminoisoquinolin-3-yl)-1-oxo-2,3-dihydro-1H-isoindol-2-yl]piperidine-2,6-dione] | 30 | ≥ 20000
Nc1nc(-c2ccc3c(c2)CN(C2CCC(=O)NC2=O)C3=O)nc2nc[nH]c12 (stereo not drawn) [Example 44, 3-[5-(6-amino-7H-purin-2-yl)-1-oxo-2,3-dihydro-1H-isoindol-2-yl]piperidine-2,6-dione] | 98 | > 20000
CCC(C)Nc1nc2ccc(-c3ccc4c(c3)CN(C3CCC(=O)NC3=O)C4=O)nc2s1 (stereo not drawn) [Example 10, 3-(5-{2-[(butan-2-yl)amino]-[1,3]thiazolo[5,4-b]pyridin-5-yl}-1-oxo-2,3-dihydro-1H-isoindol-2-yl)piperidine-2,6-dione] | 100 | > 20000
O=C1CCC(N2Cc3cc(-c4ncc(F)c5[nH]ccc45)ccc3C2=O)C(=O)N1 (stereo not drawn) [Example 11, 3-(5-{7-fluoro-1H-pyrrolo[3,2-c]pyridin-4-yl}-1-oxo-2,3-dihydro-1H-isoindol-2-yl)piperidine-2,6-dione] | 42 | 97
Nc1cn2nc(-c3ccc4c(c3)CN(C3CCC(=O)NC3=O)C4=O)ccc2n1 (stereo not drawn) [Example 65, 3-(5-{2-aminoimidazo[1,2-b]pyridazin-6-yl}-1-oxo-2,3-dihydro-1H-isoindol-2-yl)piperidine-2,6-dione] | > 20000 | > 20000
Cc1ccc2nc(-c3ccc4c(c3)CN(C3CCC(=O)NC3=O)C4=O)ccc2c1 (stereo not drawn) [Example 39, 3-[5-(6-methylquinolin-2-yl)-1-oxo-2,3-dihydro-1H-isoindol-2-yl]piperidine-2,6-dione] | 25 | > 20000
COc1cc(-c2ccc3c(c2)CN(C2CCC(=O)NC2=O)C3=O)nc2ccccc12 (stereo not drawn) [Example 12, 3-[5-(4-methoxyquinolin-2-yl)-1-oxo-2,3-dihydro-1H-isoindol-2-yl]piperidine-2,6-dione] | 38 | > 20000
O=C1CCC(N2Cc3cc(-c4nc5ccccc5cc4Cl)ccc3C2=O)C(=O)N1 (stereo not drawn) [Example 36, 3-[5-(3-chloroquinolin-2-yl)-1-oxo-2,3-dihydro-1H-isoindol-2-yl]piperidine-2,6-dione] | 110 | > 20000
O=C1CCC(N2Cc3cc(-c4cc5cc[nH]c5nn4)ccc3C2=O)C(=O)N1 (stereo not drawn) [Example 6, 3-(1-oxo-5-{7H-pyrrolo[2,3-c]pyridazin-3-yl}-2,3-dihydro-1H-isoindol-2-yl)piperidine-2,6-dione] | 140 | > 20000
O=Cc1cc2c(-c3ccc4c(c3)CN(C3CCC(=O)NC3=O)C4=O)nccc2s1 (stereo not drawn) [Example 60, 4-[2-(2,6-dioxopiperidin-3-yl)-1-oxo-2,3-dihydro-1H-isoindol-5-yl]thieno[3,2-c]pyridine-2-carbaldehyde] | 15 | 160
O=C1CCC(N2Cc3cc(-c4ccc5ccccc5n4)ccc3C2=O)C(=O)N1 (stereo not drawn) [Example 1, 3-(1-Oxo-5-(quinolin-2-yl)isoindolin-2-yl)piperidine-2,6-dione] | 34 | > 20000
O=C1CCC(N2Cc3cc(-c4cnc5cc(Cl)ccc5n4)ccc3C2=O)C(=O)N1 (stereo not drawn) [Example 18, 3-[5-(6-chloroquinoxalin-2-yl)-1-oxo-2,3-dihydro-1H-isoindol-2-yl]piperidine-2,6-dione] | 120 | > 20000
Nc1nc(-c2ccc3c(c2)CN(C2CCC(=O)NC2=O)C3=O)nc2ccccc12 (stereo not drawn) [Example 22, 3-[5-(4-aminoquinazolin-2-yl)-1-oxo-2,3-dihydro-1H-isoindol-2-yl]piperidine-2,6-dione] | 8 | > 20000
N#Cc1cc2ccccc2c(-c2ccc3c(c2)CN(C2CCC(=O)NC2=O)C3=O)n1 (stereo not drawn) [Example 59, 1-[2-(2,6-dioxopiperidin-3-yl)-1-oxo-2,3-dihydro-1H-isoindol-5-yl]isoquinoline-3-carbonitrile] | 24 | –
CNc1nc(-c2ccc3c(c2)CN(C2CCC(=O)NC2=O)C3=O)cc2c1ncn2C (stereo not drawn) [Example 61, 3-{5-[1-methyl-4-(methylamino)-1H-imidazo[4,5-c]pyridin-6-yl]-1-oxo-2,3-dihydro-1H-isoindol-2-yl}piperidine-2,6-dione] | 7 | –
CC(C)(C)Cn1ccc(=O)c2c(N)nc(-c3ccc4c(c3)CN(C3CCC(=O)NC3=O)C4=O)cc21 (stereo not drawn) [Example 46, 3-{5-[5-Amino-1-(2,2-dimethylpropyl)-4-oxo-1,4-dihydro-1,6-naphthyridin-7-yl]-1-oxo-2,3-dihydro-1H-isoindol-2-yl}piperidine-2,6-dione] | 3 | –

More lines, now with the values ahead:

DC50 (Helios) [nM] | DC50 (Ikaros) [nM] | SMILES
20 | ≥ 20000 | Nc1ccc(C2CC2)c(-c2ccc3c(c2)CN(C2CCC(=O)NC2=O)C3=O)n1 (stereo not drawn) [Example 132, 3-[5-(6-amino-3-cyclopropylpyridin-2-yl)-1-oxo-2,3-dihydro-1H-isoindol-2-yl]piperidine-2,6-dione]
190 | ≥ 20000 | COc1cc(C)cc(-c2ccc3c(c2)CN(C2CCC(=O)NC2=O)C3=O)n1 (stereo not drawn) [Example 146, 3-(5-(6-methoxy-4-methylpyridin-2-yl)-1-oxoisoindolin-2-yl)piperidine-2,6-dione]
20 | ≥ 10000 | O=C1CCC(N2Cc3cc(-c4cc5c(ccn5Cc5ccccc5)cn4)ccc3C2=O)C(=O)N1 (stereo not drawn) [Example 158, 3-(5-{1-Benzyl-1H-pyrrolo[3,2-c]pyridin-6-yl}-1-oxo-2,3-dihydro-1H-isoindol-2-yl) piperidine-2,6-dione]
17100 | ≥ 20000 | O=C1CCC(N2Cc3cc(-c4nc5ccccc5nc4Cl)ccc3C2=O)C(=O)N1 (stereo not drawn) [Example 93, 3-(5-(3-chloroquinoxalin-2-yl)-1-oxoisoindolin-2-yl)piperidine-2,6-dione]
110 | 310 | CCNc1nc2ccccc2nc1-c1ccc2c(c1)CN(C1CCC(=O)NC1=O)C2=O (stereo not drawn) [Example 95, 3-(5-(3-(ethylamino)quinoxalin-2-yl)-1-oxoisoindolin-2-yl)piperidine-2,6-dione]
20 | 410 | N#Cc1cnc(-c2ccc3c(c2)CN(C2CCC(=O)NC2=O)C3=O)c2ccccc12 (stereo not drawn) [Example 90, -(2-(2,6-dioxopiperidin-3-yl)-1-oxoisoindolin-5-yl)isoquinoline-4-carbonitrile]
2 | ≥ 20000 | Nc1ccc2cnc(-c3ccc4c(c3)CN(C3CCC(=O)NC3=O)C4=O)cc2c1 (stereo not drawn) [Example 102, 3-(5-(6-aminoisoquinolin-3-yl)-1-oxoisoindolin-2-yl)piperidine-2,6-dione]
50 | ≥ 10000 | O=C1CCC(N2Cc3cc(-c4cc5c(cn4)NCC5)ccc3C2=O)C(=O)N1 (stereo not drawn) [Example 113, 3-(5-(2,3-dihydro-1H-pyrrolo[2,3-c]pyridin-5-yl)-1-oxoisoindolin-2-yl)piperidine-2,6-dione]
5330 | ≥ 20000 | COc1cccc(-c2ccc3c(c2)CN(C2CCC(=O)NC2=O)C3=O)n1 (stereo not drawn) [Example 155, 3-[5-(6-Methoxypyridin-2-yl)-1-oxo-2,3-dihydro-1H-isoindol-2-yl]piperidine-2,6-dione]
1350 | ≥ 20000 | Nc1cncc(-c2ccc3c(c2)CN(C2CCC(=O)NC2=O)C3=O)n1 (stereo not drawn) [Example 142, 3-(5-(6-aminopyrazin-2-yl)-1-oxoisoindolin-2-yl)piperidine-2,6-dione]
2200 | ≥ 20000 | O=C1CCC(N2Cc3cc(-c4cc5ccccc5c(C5CC5)n4)ccc3C2=O)C(=O)N1 (stereo not drawn) [Example 89, 3-(5-(1-cyclopropylisoquinolin-3-yl)-1-oxoisoindolin-2-yl)piperidine-2,6-dione]
170 | ≥ 10000 | Cc1ccc(-c2ccc3c(c2)CN(C2CCC(=O)NC2=O)C3=O)nc1N (stereo not drawn) [Example 116, 3-(5-(6-amino-5-methylpyridin-2-yl)-1-oxoisoindolin-2-yl)piperidine-2,6-dione]
30 | – | CCCc1cc(-c2ccc3c(c2)CN(C2CCC(=O)NC2=O)C3=O)nc(N)c1C#N (stereo not drawn) [Example 172, 2-amino-6-(2-(2,6-dioxopiperidin-3-yl)-1-oxoisoindolin-5-yl)-4-propylnicotinonitrile]
350 | – | N#Cc1c(C(F)F)cc(N)nc1-c1ccc2c(c1)CN(C1CCC(=O)NC1=O)C2=O (stereo not drawn) [Example 174, 6-amino-4-(difluoromethyl)-2-(2-(2,6-dioxopiperidin-3-yl)-1-oxoisoindolin-5-yl) nicotinonitrile]
40 | – | N#Cc1c(C(F)(F)F)cc(-c2ccc3c(c2)CN(C2CCC(=O)NC2=O)C3=O)nc1N (stereo not drawn) [Example 177, 2-amino-6-(2-(2,6-dioxopiperidin-3-yl)-1-oxoisoindolin-5-yl)-4-(trifluoromethyl)nicotine-nitrile]
90 | – | O=C1CCC(N2Cc3cc(-c4nc5ccccc5nc4C4CC4)ccc3C2=O)C(=O)N1 (stereo not drawn) [Example 97, 3-(5-(3-cyclopropylquinoxalin-2-yl)-1-oxoisoindolin-2-yl)piperidine-2,6-dione]
